Read-outs that look alike come from different tables or passages of the source. One block for each compound: values may come before it.
Experiments:
Panc02 cells [1] = test: ROS interference in cell viability (MTT with antioxidants); type: cell-based, mouse; conditions: 24 h; for Protection against sigma-2 ligand induced cell death (Panc02 viability): antioxidant 100 μM one hour prior to sigma-2 ligands 50 μM
Procedure: The interference of ROS in cell viability was indirectly determined by MTT assay reported above at 24 h. On day 1, Panc02 cells were plated at a density of 2 × 10^4 cells/well in opaque 96-well, clear-bottom plates 24 h prior to treatment. On day 2, cells were treated with the drugs (50 μM) in the presence or absence of α-tocopherol (100 μM) or N-Acetyl-L-cysteine (100 μM). After incubation (24 h) with drugs, MTT assay was performed as above.

Panc02 tumors = test: In vivo tumor growth and survival, Panc02 tumors in C57BL/6 mice; conditions: for Effect on tumor volume (in words) / Mean tumor volume following conclusion of treatment: Panc02 s.c. in female C57BL/6; for Effect on tumor volume (in words): daily i.p. treatment, compared to vehicle or gemcitabine; for Mean tumor volume following conclusion of treatment: i.p. daily for two weeks (gemcitabine once weekly), vehicle mean = 924 mm^3
Procedure: In this pre-clinical model, we utilized the Panc02 cell line, which is weakly immunogenic in C57BL/6 mice and aggressive with a subcutaneous inoculum of 1 × 10^5 cells being lethal within 6–8 weeks. In vivo studies with mice were performed to compare the effect of sigma-2 ligands with gemcitabine. Mice treated with vehicle alone (a mixture of 5% DMSO, 5% EtOH, and 10% Cremophor in H2O) served as the control cohort. Female C57BL/6 mice (10 weeks old, National Cancer Institute Laboratories) were injected in the right flank with 200 μL of a single-cell suspension of Panc02 cells in non-supplemented RPMI medium (1 × 10^6 cells per mouse). Treatment began when the mean tumor diameter was ~ 5 mm. […] Tumors were measured three times weekly in two dimensions with a digital caliper, and tumor volumes were calculated by the standard formula of Tumor Volume = Length x Width^2 × 0.5. All mice were euthanized when tumors reached a diameter of 15 mm or had ulcerated.

KP02 cells = test: MTT cell viability, KP02; type: cell-based, mouse; conditions: Mus musculus, 24 h, 24 h treatment, viability relative to vehicle
Procedure: (§1) Determination of cell growth was performed using the MTT assay at 24 h. On day 1, pancreatic cancer cell lines were plated at a density of 2 × 10^4 cells/well in black clear-bottom 96-well plates for 24 h prior to treatment in a volume of 100 μL. On day 2, the cells were treated for 24 h with the various drugs concentration (1 μM-100 μM). Untreated cells served as a control. The various drug-solvents (EtOH, DMSO) were added in each control to evaluate a possible solvent cytotoxicity. After the established incubation time with drugs (24 h), MTT (0.5 mg/ml) was added to each well, and after 3–4 h incubation at 37 °C, the supernatant was removed. The formazan crystals were solubilized using 100 μl of DMSO/EtOH (1:1) and the absorbance values at 570 and 630 nm were determined on the multi-mode microplate reader (BioTek instruments, Winooski, VT). Different drug concentrations were assayed in triplicates.
(§2) Statistical analyses and data plotting were performed using GraphPad Prism software version 6.03 (San Diego, CA). Results were expressed as mean ± standard error of the mean of at least 3 biological replicates. EC50 values were calculated by curve fitting normalized viability versus drug concentration. Differences in viability, caspase-3 activity, and tumor volume were analyzed using two-way ANOVA to identify differences and confirmed with paired two tailed t-tests. Mann-Whitney test was used to compare the difference in CBC and biochemistry analyses. Kaplan-Meier survival analyses were used to assess differences between treatment groups and were compared using a log-rank test. A p-value < 0.05 was considered significant for all analyses.

[2] = Toxicity evaluation on mice not bearing tumor (CBC, serum chemistry, pathology); type: in vivo, C57BL/6 mice; conditions: for Off-target effects by necropsy and laboratory evaluations: naïve C57BL/6 mice, continuous daily treatment; for Creatinine: control 0.34 ± 0.02; for RBC: control 7.14 ± 0.1; for WBC: control 10.58 ± 0.2; for HGB: control 10.7 ± 0.7; for MCH: control 15 ± 0.54; for BUN: control 27 ± 0.4; for MCHC: control 29.2 ± 1.21; for HCT: control 36.6 ± 0.08; for MCV: control 51.2 ± 0.32; for Glucose: control 62 ± 12.5; for ALT: control 260 ± 21; for Platelets: control 486 ± 67
Procedure: […] Mice from each treatment cohort were assessed for pathologic evaluation (Digestive Diseases Research Core Center at our institution). Blood was collected for complete blood count (CBC) and biochemical analysis (AST, ALT, BUN, total protein, glucose and Cr). Organs were examined grossly and histologically.

Panc02 cells [3] = test: MTT cell viability, Panc02; type: cell-based; conditions: Mus musculus, 24 h treatment, viability relative to vehicle
Procedure: as §1, §2

Panc-1 cells = test: MTT cell viability, Panc-1; type: cell-based; conditions: Homo sapiens, 24 h treatment, viability relative to vehicle
Procedure: as §1, §2

AsPC-1 cells = test: MTT cell viability, AsPC-1; type: cell-based; conditions: Homo sapiens, ASPC1, 24 h treatment, viability relative to vehicle
Procedure: as §1, §2

BxPC3 cells = test: MTT cell viability, BxPC3; type: cell-based, human; conditions: Homo sapiens, BXPC-3, 24 h, 24 h treatment, viability relative to vehicle
Procedure: as §1, §2

sigma-2 receptor = conditions: ref Berardi, read-out: Affinity (Ki) σ2, cited from earlier work
caspase-3 = test: Caspase-Glo caspase-3 activity in Panc02 cells; type: cell-based, mouse; conditions: for Caspase-3 activation (in words): compared to DMSO control
Procedure: Caspase-3 activity was measured in Panc02 cell lines with a Caspase-Glo® Assay Systems (Promega) according to protocol in which the reagent contain luminogenic caspase substrates that cleaved by activated caspase. […] The contents were then mixed using plate shaker for 30 s, and incubated at room temperature for 90 min. Luminescence signal was measured using multi-mode microplate reader (BioTek). Assay was performed in triplicates, and caspase activity was plotted compared cells treated with DMSO as a control.

KCKO cells = test: MTT cell viability, KCKO; type: cell-based; conditions: Mus musculus, 24 h treatment, viability relative to vehicle
Procedure: as §1, §2

MIAPaCa-2 cells = test: MTT cell viability, MIAPaCa-2; type: cell-based; conditions: Homo sapiens, MIA PaCa-2, 24 h treatment, viability relative to vehicle
Procedure: as §1, §2

Panc02 cells [4] = test: MitoSOX Red mitochondrial superoxide by flow cytometry, Panc02; type: cell-based, mouse; conditions: all pancreatic cancer cell lines tested (Panc02, AsPC-1, KP02, BxPC3); sigma-2 ligands 50 μM, 2 h, with α-tocopherol
Procedure: MitoSOX™ Red reagent is a novel fluorogenic dye specifically targeted to mitochondria in live cells. Oxidation of MitoSOX™ Red reagent by superoxide produces red fluorescence. Mitochondrial superoxide is generated as a byproduct of oxidative phosphorylation. […] MitoSOX™ Red reagent is readily oxidized by superoxide but not by other ROS- or reactive nitrogen species (RNS)–generating systems. Panc02, AsPC-1, KP-2 or BxPC3 cells were seeded into 12-well plates 24 h before treatment with sigma-2 ligands (50 μM) for 2 h at 37°C in presence or absence of α-tocopherol (100 μM) followed by staining with MitoSOX™ Red (5 μM). Two hours after red dye addition, the cells were washed twice with PBS and harvested with trypsin/EDTA buffer. The cells were washed twice with PBS before analysis with FACSCalibur (BD Bioscience, San Jose, CA). The oxidation product of MitoSOX™ Red by mitochondrial superoxide fluoresces with an emission maximus of 580 nm and was detected in the FL3 channel. Experiment was performed in triplicates.

[5] = not tumor-bearing C57BL/6 mice, n = 3, daily i.p., 5 days

SMILES: CC(=O)N[C@@H](CS)C(=O)O [N-acetyl-L-cysteine (NAC), N-Acetyl-L-cysteine, reference compound]
- Protection against sigma-2 ligand induced cell death (Panc02 viability) (Panc02 cells [1]): did not

SMILES: COc1cccc2c1CCCC2CCCN1CCN(C2CCCCC2)CC1 (centres unmarked) [PB28, 1-Cyclohexyl-4-[3-(5-methoxy-1,2,3,4-tetrahydronaphthalen-1-yl)propyl] piperazine]
- Effect on tumor volume (in words) (Panc02 tumors): decreased tumor volume similar to gemcitabine alone
- Mean tumor volume following conclusion of treatment (Panc02 tumors): 369 mm^3
- Median survival (Panc02 tumors; Panc02 tumor-bearing C57BL/6 mice, treatment discontinued on day 15, DMSO (vehicle) 23 days): 27 days
- EC50 (KP02 cells): > 100 µM
- Off-target effects by necropsy and laboratory evaluations [2]: no major off-target effects
- Creatinine [2, 5]: 0.37 ± 0.04 mg/dL
- RBC [2, 5]: 10.24 ± 0.3 10^6/μL
- WBC [2, 5]: 11.11 ± 1.97 10^3/μL
- HGB [2, 5]: 15.65 ± 0.55 g/dL
- MCH [2, 5]: 15.3 ± 0.1 pg
- BUN [2, 5]: 32 ± 1 mg/dL
- MCHC [2, 5]: 29.3 ± 0.2%
- HCT [2, 5]: 53.4 ± 1.5%
- MCV [2, 5]: 52.15 ± 0.05 fL
- Glucose [2, 5]: 92.5 ± 22.5 mg/dL
- ALT [2, 5]: 249 ± 9 μ/L
- Platelets [2, 5]: 643.5 ± 95.5 10^3/μL
- EC50 (Panc02 cells [3]): 43 µM
- EC50 (Panc-1 cells): > 100 µM
- EC50 (AsPC-1 cells): > 100 µM
- EC50 (BxPC3 cells): > 100 µM
- Ki (sigma-2 receptor; et al. 2009 [26]): 0.00068 µM
- Caspase-3 activation (in words) (caspase-3; 200 μM, 5 h): did not activate at all
- EC50 (KCKO cells): 87 µM
- EC50 (MIAPaCa-2 cells): 51 µM

- EC50 (Panc02 cells [3]): 83 µM
- EC50 (Panc-1 cells): > 100 µM
- EC50 (AsPC-1 cells): > 100 µM
- EC50 (BxPC3 cells): 100 µM
- EC50 (MIAPaCa-2 cells): 49 µM
SMILES: COc1cccc2c(CCCN3CCN(C4CCCCC4)CC3)cccc12 [PB183, 1-Cyclohexyl-4-[3-(5-methoxynaphthalen-1-yl)propyl]-piperazine]
- Effect on tumor volume (in words) (Panc02 tumors): not effective
- EC50 (KP02 cells): 97 µM
- Off-target effects by necropsy and laboratory evaluations [2]: no major off-target effects
- Creatinine [2, 5]: 0.37 ± 0.04 mg/dL
- AST ([2]; not tumor-bearing C57BL/6 mice, n = 3, daily i.p., 5 days, control 5.6 ± 0.05): 5.4 ± 0.5 μ/L
- RBC [2, 5]: 9.24 ± 0.9 10^6/μL
- WBC [2, 5]: 6.42 ± 1.22 10^3/μL
- HGB [2, 5]: 14.85 ± 1.35 g/dL
- MCH [2, 5]: 16.1 ± 0.1 pg
- BUN [2, 5]: 21 ± 2 mg/dL
- MCHC [2, 5]: 30.4 ± 0.7%
- HCT [2, 5]: 48.8 ± 3.3%
- MCV [2, 5]: 52.9 ± 1.6 fL
- ALT [2, 5]: 203 ± 34 μ/L
- Platelets [2, 5]: 727.5 ± 65.5 10^3/μL
- Cell death on co-treatment with NAC (Panc02 cells [1]; Panc02 cells, ligand 50 μM with NAC 100 μM): even higher levels of cell death
- Ki (sigma-2 receptor; et al. 2004 [25]): 0.00924 µM
- Caspase-3 activation (in words) (caspase-3; 200 μM, 5 h): little effect
- EC50 (KCKO cells): 51 µM

- EC50 (Panc02 cells [3]): 37 µM
- EC50 (Panc-1 cells): > 100 µM
- EC50 (AsPC-1 cells): > 100 µM
- EC50 (BxPC3 cells): 100 µM
- EC50 (MIAPaCa-2 cells): 50 µM
SMILES: COc1cccc2c1CCCC2CCCN1CCC(C2CCCCC2)CC1 (centres unmarked) [PB221, 4-Cyclohexyl-1-[3-(5-methoxy-1,2,3,4-tetrahydronaphthalen-1-yl-propyl)]piperidine]
- Effect on tumor volume (in words) (Panc02 tumors): did not confer a significantly different tumor volume than vehicle alone
- EC50 (KP02 cells): > 100 µM
- Off-target effects by necropsy and laboratory evaluations [2]: no major off-target effects
- Creatinine [2, 5]: 0.35 ± 0.03 mg/dL
- RBC [2, 5]: 9.59 ± 0.71 10^6/μL
- WBC [2, 5]: 8.12 ± 0.14 10^3/μL
- HGB [2, 5]: 14.7 ± 0.8 g/dL
- MCH [2, 5]: 15.35 ± 0.35 pg
- BUN [2, 5]: 30.5 ± 3.5 mg/dL
- MCHC [2, 5]: 29.25 ± 0.55%
- HCT [2, 5]: 50.35 ± 3.75%
- MCV [2, 5]: 52.5 ± 0.02 fL
- Glucose [2, 5]: 64.5 ± 7.5 mg/dL
- ALT [2, 5]: 219 ± 5 μ/L
- Platelets [2, 5]: 563 ± 17 10^3/μL
- Ki (sigma-2 receptor; et al. 2009 [26]): 0.0188 µM
- Increase of caspase-3 activity compared to cells treated with DMSO vehicle (caspase-3; 200 μM, 5 h): 15.7 fold
- EC50 (KCKO cells): 19 µM

SMILES: Nc1ccn([C@@H]2O[C@H](CO)[C@@H](O)C2(F)F)c(=O)n1 [gemcitabine, Gemcitabine, reference compound]
- Mean tumor volume following conclusion of treatment (Panc02 tumors): 395 mm^3

SMILES: Cc1c(C)c2c(c(C)c1O)CC[C@@](C)(CCC[C@H](C)CCC[C@H](C)CCCC(C)C)O2 [α-tocopherol, reference compound]
- Protection against sigma-2 ligand induced cell death (Panc02 viability) (Panc02 cells [1]): protected against sigma-2 receptor ligands induced cell death
- Effect on caspase activation caused by PB221 or PB282 (caspase-3; Z-DEVD-FMK 1 μM or α-tocopherol given before PB221, PB282 (200 μM, 5 h)): abrogates caspase-3 dependent cleavage
- Effect on mitochondrial superoxide production following sigma-2 ligands treatment (Panc02 cells [4]): strongly decreased
